Data: ChEMBL document CHEMBL1133313, “Syntheses and antifungal activity of pseudomycin side-chain analogues. Part 1” (2000)
≈ marks a conversion by molar mass, not a printed value. Positions of bridges follow the written chain, without caps; N, C: chain ends. Non-standard residues stand in square brackets, D forms with d. Residues, ends and D or L forms follow the SMILES beside them. *: point of attachment. Tetradecanoyl(3R-OH) = CCCCCCCCCCC[C@@H](O)CC(=O)*; Asp(3S-OH) = N[C@H](C(=O)O)[C@H](O)C(=O)O; Thr(4-Cl) = N[C@H](C(=O)O)[C@H](O)CCl; aThr = C[C@H](O)[C@H](N)C(=O)O; dDab = NCC[C@@H](N)C(=O)O; Dab = NCC[C@H](N)C(=O)O; Dhb = C/C=C(\N)C(=O)O

Experiments:
Assay type in all cases: functional
Candida albicans [1] = test: Lowest concentration required to inhibit 90-100% of the visible growth of Candida albicans when compared to controls
Aspergillus fumigatus = test: Lowest concentration required to inhibit the growth of Aspergillus fumigatus
Candida albicans [2] = test: Lowest concentration required to inhibit 90-100% of the visible growth of Candida albicans when compared to control; Range is 0.312-0.625

| SMILES | MIC (Candida albicans [1]) [µg/mL] | MIC (Aspergillus fumigatus) [µg/mL] | MIC (Candida albicans [2]) [µg/mL] |
| --- | --- | --- | --- |
| C/C=C1\NC(=O)[C@H]([C@@H](C)O)NC(=O)[C@@H](CCN)NC(=O)[C@@H](CCCCN)NC(=O)[C@@H](CC(=O)O)NC(=O)[C@@H](CCN)NC(=O)[C@@H](NC(=O)CC(O)CCc2cccc(OCCCCCCCCC)c2)COC(=O)[C@@H]([C@H](O)CCl)NC(=O)[C@H]([C@H](O)C(=O)O)NC1=O (stereo not given in full) | 20 (≈ 15.4 µM) | > 20 |  |
| C/C=C1\NC(=O)[C@H]([C@@H](C)O)NC(=O)[C@@H](CCN)NC(=O)[C@@H](CCCCN)NC(=O)[C@@H](CC(=O)O)NC(=O)[C@@H](CCN)NC(=O)[C@@H](NC(=O)CC(O)CCc2cccc(OCCCCC)c2)COC(=O)[C@@H]([C@H](O)CCl)NC(=O)[C@H]([C@H](O)C(=O)O)NC1=O (stereo not given in full) | > 20 | > 20 |  |
| C/C=C1\NC(=O)[C@H]([C@H](C)O)NC(=O)[C@@H](CCN)NC(=O)[C@@H](CCCCN)NC(=O)[C@@H](CC(=O)O)NC(=O)[C@@H](CCN)NC(=O)[C@@H](NC(=O)C[C@H](O)CCc2cccc(OCCCCC)c2)COC(=O)[C@@H]([C@H](O)CCl)NC(=O)[C@H]([C@H](O)C(=O)O)NC1=O | > 20 | > 20 |  |
| C/C=C1\NC(=O)[C@H]([C@H](C)O)NC(=O)[C@@H](CCN)NC(=O)[C@@H](CCCCN)NC(=O)[C@@H](CC(=O)O)NC(=O)[C@@H](CCN)NC(=O)[C@@H](NC(=O)C[C@@H](O)c2cccc(CCCCCCCC)c2)COC(=O)[C@@H]([C@H](O)CCl)NC(=O)[C@H]([C@H](O)C(=O)O)NC1=O | > 20 | > 20 |  |
| C/C=C1\NC(=O)[C@H]([C@H](C)O)NC(=O)[C@H](CCN)NC(=O)[C@H](CCCCN)NC(=O)[C@H](CC(=O)O)NC(=O)[C@@H](CCN)NC(=O)[C@@H](NC(=O)C[C@H](O)CCCCCCCCCCC)COC(=O)[C@H]([C@H](O)CCl)NC(=O)[C@H]([C@H](O)C(=O)O)NC1=O ({Tetradecanoyl(3R-OH)}-S[dDab]DK[Dab][aThr][Dhb][Asp(3S-OH)][Thr(4-Cl)]; ester 1-C) |  | > 20 | 0.625 (≈ 0.517 µM) |
| C/C=C1\NC(=O)[C@H]([C@H](C)O)NC(=O)[C@@H](CCN)NC(=O)[C@@H](CCCCN)NC(=O)[C@@H](CC(=O)O)NC(=O)[C@@H](CCN)NC(=O)[C@@H](NC(=O)C[C@H](O)c2cccc(CCCCCCCCCCCC)c2)COC(=O)[C@@H]([C@H](O)CCl)NC(=O)[C@H]([C@H](O)C(=O)O)NC1=O | 1.25 (≈ 0.963 µM) | 2.5 (≈ 1.93 µM) |  |
| C/C=C1\NC(=O)[C@H]([C@@H](C)O)NC(=O)[C@@H](CCN)NC(=O)[C@@H](CCCCN)NC(=O)[C@@H](CC(=O)O)NC(=O)[C@@H](CCN)NC(=O)[C@@H](NC(=O)CC(O)Cc2cccc(OCCCCCCCCCC)c2)COC(=O)[C@@H]([C@H](O)CCl)NC(=O)[C@H]([C@H](O)C(=O)O)NC1=O (stereo not given in full) | 15 (≈ 11.5 µM) | > 20 |  |
| C/C=C1\NC(=O)[C@H]([C@@H](C)O)NC(=O)[C@@H](CCN)NC(=O)[C@@H](CCCCN)NC(=O)[C@@H](CC(=O)O)NC(=O)[C@@H](CCN)NC(=O)[C@@H](NC(=O)CC(O)CCc2cccc(OCCCCCCC)c2)COC(=O)[C@@H]([C@H](O)CCl)NC(=O)[C@H]([C@H](O)C(=O)O)NC1=O (stereo not given in full) | 10 (≈ 7.86 µM) | > 20 |  |
| C/C=C1\NC(=O)[C@H]([C@@H](C)O)NC(=O)[C@@H](CCN)NC(=O)[C@@H](CCCCN)NC(=O)[C@@H](CC(=O)O)NC(=O)[C@@H](CCN)NC(=O)[C@@H](NC(=O)CC(O)Cc2cccc(OCCCCCC)c2)COC(=O)[C@@H]([C@H](O)CCl)NC(=O)[C@H]([C@H](O)C(=O)O)NC1=O (stereo not given in full) | > 20 | > 20 |  |
| C/C=C1\NC(=O)[C@H]([C@@H](C)O)NC(=O)[C@@H](CCN)NC(=O)[C@@H](CCCCN)NC(=O)[C@@H](CC(=O)O)NC(=O)[C@@H](CCN)NC(=O)[C@@H](NC(=O)CC(O)Cc2cccc(OCCCCCCCC)c2)COC(=O)[C@@H]([C@H](O)CCl)NC(=O)[C@H]([C@H](O)C(=O)O)NC1=O (stereo not given in full) | > 20 | > 20 |  |
| C/C=C1\NC(=O)[C@H]([C@H](C)O)NC(=O)[C@@H](CCN)NC(=O)[C@@H](CCCCN)NC(=O)[C@@H](CC(=O)O)NC(=O)[C@@H](CCN)NC(=O)[C@@H](NC(=O)C[C@@H](O)CCc2cccc(OCCCCC)c2)COC(=O)[C@@H]([C@H](O)CCl)NC(=O)[C@H]([C@H](O)C(=O)O)NC1=O | > 20 | > 20 |  |
| C/C=C1\NC(=O)[C@H]([C@H](C)O)NC(=O)[C@@H](CCN)NC(=O)[C@@H](CCCCN)NC(=O)[C@@H](CC(=O)O)NC(=O)[C@@H](CCN)NC(=O)[C@@H](NC(=O)C[C@@H](O)c2cccc(CCCCCCCCCCCC)c2)COC(=O)[C@@H]([C@H](O)CCl)NC(=O)[C@H]([C@H](O)C(=O)O)NC1=O | 5 (≈ 3.85 µM) | > 20 |  |
| C/C=C1\NC(=O)[C@H]([C@H](C)O)NC(=O)[C@@H](CCN)NC(=O)[C@@H](CCCCN)NC(=O)[C@@H](CC(=O)O)NC(=O)[C@@H](CCN)NC(=O)[C@@H](NC(=O)C[C@@H](O)c2cccc(OCCCCCCCCCCC)c2)COC(=O)[C@@H]([C@H](O)CCl)NC(=O)[C@H]([C@H](O)C(=O)O)NC1=O | 10 (≈ 7.69 µM) | > 20 |  |
| C/C=C1\NC(=O)[C@H]([C@@H](C)O)NC(=O)[C@@H](CCN)NC(=O)[C@@H](CCCCN)NC(=O)[C@@H](CC(=O)O)NC(=O)[C@@H](CCN)NC(=O)[C@@H](NC(=O)C[C@H](O)c2cccc(CCCCCCCC)c2)COC(=O)[C@@H]([C@H](O)CCl)NC(=O)[C@H]([C@H](O)C(=O)O)NC1=O | 5 (≈ 4.03 µM) | > 20 |  |
| C/C=C1\NC(=O)[C@H]([C@@H](C)O)NC(=O)[C@@H](CCN)NC(=O)[C@@H](CCCCN)NC(=O)[C@@H](CC(=O)O)NC(=O)[C@@H](CCN)NC(=O)[C@@H](NC(=O)C[C@H](O)c2cccc(OCCCCCCCCCCC)c2)COC(=O)[C@@H]([C@H](O)CCl)NC(=O)[C@H]([C@H](O)C(=O)O)NC1=O | 0.625 (≈ 0.481 µM) | > 20 |  |
